How the values were obtained:
[1] = system: mCD1d.CEA fusion protein; assay: Direct comparison of DB12-8 and 7DW8-5 complexes with mCD1d.CEA fusion protein, L363 ELISA; format: binding, murine
Procedure: (§1) The ligand binding affinity of plate bound mCD1d was measured by ELISA using mAb L363 to detect murine CD1d/αGalCer complexes. ELISA plates were coated with mCD1d (10 μg/ml, 30 μl/well) overnight at 4° C. in PBS pH 8.2. Supernatant was then removed along with any unbound protein. Glycolipids (5 μM, 30 μl/well) were loaded and allowed to incubate overnight at 25° C. Supernatant was again removed and the complexes were washed three times with PBS to remove any unbound glycolipid. For those complexes that underwent UV activation, UV crosslinking was performed in solution (30 μl/well PBS) and at a fixed wavelength of 365 nm from a UV lamp (RAD-FREE long wave UV lamp, Schleicher & Schuell). The UV lamp was placed one inch from the sample and the sample was allowed to sit on ice for 1 hr.
(§2) The ligand binding affinity of plate bound mCD1d was detected by iNKT DN3A4-1.2 hybridoma stimulation assay. mCD1d (10 μg/ml) was loaded with glycolipids (5 μM) overnight at 25° C. ELISA plates were coated with mCD1d:GC complexes (2.5 μg/ml, 30 μl/well) for 12-18 hours at 4° C. in PBS pH 8.2. Supernatant was then removed and the complexes were washed three times with PBS to remove any unbound glycolipid and protein. For those complexes that underwent UV activation, UV crosslinking was performed in solution (30 μl/well PBS) and at a fixed wavelength of 365 nm from a UV lamp (RAD-FREE long wave UV lamp, Schleicher & Schuell). The UV lamp was placed one inch from the sample and the sample was allowed to sit on ice for 1 hr. Supernatant was then removed and the complexes were washed three times with PBS to remove any unbound glycolipid and protein.
mCD1d.CEA (10 μg/ml), a recombinant mCD1d protein genetically fused with a single chain Fv antibody fragment specific for the tumor associated antigen CEA, was loaded with glycolipids (5 μM) overnight at 25° C. in PBS pH8.2 with 0.05% tyloxapol. The mCD1d.CEA:GC complexes (10 μg/ml, 30 μl/well) were coated onto wells of high binding ELISA 96 well plates overnight at 4° C. UV exposure and incubation to allow dissociation over 3 days were performed as described in Examples 6 and 7.
A scale up of the complex formation in solution was performed using a 10-fold increased concentration of protein and glycolipid and the results are shown in FIG. 9C-9D. mCD1d.CEA (100 μg/ml) was loaded with DB12-8 (50 μM respectively) overnight at 25° C. in PBS pH8.2 with 0.05% tyloxapol. DB12-8:mCD1d.CEA complexes were diluted down to 10 μg/ml and were coated onto the high binding ELISA plates (30 μl/well), overnight at 4° C. UV exposure and incubation to allow dissociation over 3 days were performed as described in Examples 6 and 7.

[2] = system: iNKT hybridoma DN3A4-1.2 with plate bound mCD1d; assay: Plate bound mCD1d:glycolipid complexes with and without UV activation, iNKT DN3A4-1.2 hybridoma stimulation assay (IL-2 ELISA); format: cell-based, murine; conditions: for iNKT stimulation post-dissociation (IL-2 ELISA): after 3 days dissociation, non-crosslinked mCD1d complexes (UV state not stated for 7DW8-5)
Procedure: as §2

[3] = biological target: T1, soluble recombinant mCD1d (Mus musculus, UniProt P11609); assay: Direct comparison of DB12-8 and 7DW8-5 complexes with soluble recombinant mCD1d, L363 ELISA; format: binding, murine
T1 construct: A soluble recombinant mCD1d protein (10 μg/ml) was loaded with glycolipids
T1 sequence (P11609 22-305 limits assumed): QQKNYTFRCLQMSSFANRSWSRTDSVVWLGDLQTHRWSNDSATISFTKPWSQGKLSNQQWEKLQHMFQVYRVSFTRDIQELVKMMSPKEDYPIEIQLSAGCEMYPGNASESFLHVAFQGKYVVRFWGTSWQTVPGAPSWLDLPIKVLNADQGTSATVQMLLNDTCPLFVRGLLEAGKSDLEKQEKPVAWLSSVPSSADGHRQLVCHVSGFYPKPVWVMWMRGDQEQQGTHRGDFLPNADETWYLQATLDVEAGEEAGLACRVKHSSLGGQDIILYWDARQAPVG
T1 sequence (P01887 21-119 partner): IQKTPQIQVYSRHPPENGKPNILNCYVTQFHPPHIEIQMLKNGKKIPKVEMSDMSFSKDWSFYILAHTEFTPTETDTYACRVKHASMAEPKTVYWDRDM
Procedure: as §1, §2
A soluble recombinant mCD1d protein (10 μg/ml) was loaded with glycolipids (5 μM) overnight at 25° C. in PBS pH8.2 with 0.05% tyloxapol. The mCD1d:GC complexes (10 μg/ml, 30 μl/well) were coated onto the high binding ELISA plates, overnight at 4° C. UV exposure and incubation to allow dissociation over 3 days was performed as described in Examples 6 and 7.

[4] = biological target: T2, plate bound mCD1d (Mus musculus, UniProt P11609); assay: Ligand binding to plate bound mCD1d with and without UV activation, ELISA using mAb L363; set-up: species or system murine; conditions: for dissociation of CD1d:glycolipid complex after 3 days (L363 ELISA): 3 days in PBS+0.05% Triton X-100 at 25° C.
T2 construct: recombinant soluble murine CD1d (mCD1d) was diluted to 400 μg/ml in PBS pH 7.2
T2 sequence (P11609 22-305 limits assumed): T1 sequence (P11609 22-305 limits assumed)
T2 sequence (P01887 21-119 partner): T1 sequence (P01887 21-119 partner)
Procedure: as §1

[5] = system: iNKT hybridoma DN3A4-1.2 with human CD1d transfected HeLa cells; assay: iNKT hybridoma stimulation (IL-2 secretion) with hCD1d expressing HeLa cells; format: cell-based; conditions: BPGC 5 to 0.01 μg/ml for 3 hrs, hybridoma 18 hours
Procedure: The activated natural killer cells were again calculated based on those secreting IL-2. Specifically, plate bound human CD1d transfected HeLa cells (10,000 cells in 100 μl medium) were plated in a 96 well tissue culture plate and allowed to adhere to the plates for 30 minutes at 37° C. Adherent HeLa cells were treated with varying BPGC concentrations ranging between 5 and 0.01 μg/ml in 100 μl for 3 hrs at 37° C. Glycolipid not taken up by cells was removed by washing with medium. To detect the BPGC presentation by CD1d, iNKT hybridoma DN3A4-1.2 (5000 cells in 100 μl volume) was added and the stimulation was detected by the level of IL-2 secreted in the supernatant following incubation at 37° C. for 18 hours.

[6] = system: iNKT hybridoma DN3A4-1.2 with murine CD1d-expressing antigen presenting cells; assay: iNKT hybridoma stimulation (IL-2 secretion) with mCD1d expressing BMDCs; format: cell-based, mouse; conditions: BMDCs from C57BL/6 mice, BPGC 5 to 0.01 μg/ml for 3 hrs, hybridoma 18 hrs
Procedure: The activated natural killer cells were calculated based on those secreting IL-2. Specifically, bone marrow-derived dendritic cells (BMDCs) from C57BL/6 mice (10,000 cells in 100 μl culture medium) were plated in wells of a 96 well tissue culture plate and allowed to adhere to the plates for 30 minutes at 37° C. The cultures were then exposed to varying BPGC concentrations ranging between 5 and 0.01 μg/ml in 100 μl for 3 hrs at 37° C. Glycolipids not taken up by BMDCs were removed by washing with culture medium. To detect the BPGC presentation by CD1d, iNKT hybridoma DN3A4-1.2 (5000 cells in 100 μl volume) was added and the stimulation was detected by the level of IL-2 secreted in the supernatant following 18 hrs of incubation at 37° C.

[7] = biological target: T3, mouse CD1d (Mus musculus, UniProt P11609); assay: Tryptophan fluorescence quenching of mCD1d by glycolipid binding; conditions: protein 0.1 μM, glycolipid 4 μM, 25° C., excited at λ295
T3 construct: recombinant soluble murine CD1d (mCD1d) was diluted to 400 μg/ml in PBS pH 7.2
T3 sequence (P11609 22-305 limits assumed): T1 sequence (P11609 22-305 limits assumed)
T3 sequence (P01887 21-119 partner): T1 sequence (P01887 21-119 partner)
Procedure: The effect of glycolipid binding to mouse CD1d was tested. Fluorescence quenching of mCD1d due to glycolipid binding was measured using a Horibo Jobin Yvon Fluoromax-3 fluorescent spectrophotometer and the data were analyzed using FluorEssence software. Protein (0.1 μM) was mixed either with glycolipid antigens (at 4 μM) or the ligand vehicle in a quartz cuvette 1 cm wide, to a final volume of 100 μl and placed in the spectrometer already set at 25° C. The samples were excited at λ295 and emission measured from […] to λ400.

Compound | dissociation after 3 days (L363 ELISA signal) ([1]; UV exposure at 365 nm) | affinity to CD1d, complex detected by L363 ELISA ([1]; mCD1d.CEA 10 μg/ml, glycolipid 5 μM) | dissociation after 3 days (L363 ELISA signal) ([1]; non UV-crosslinked state) | iNKT stimulation post-dissociation (IL-2 ELISA) [2] | dissociation after 3 days (L363 ELISA signal) ([3]; UV exposure at 365 nm) | affinity to CD1d, complex detected by L363 ELISA ([3]; mCD1d 10 μg/ml, glycolipid 5 μM) | dissociation after 3 days (L363 ELISA signal) ([3]; non UV-crosslinked state) | dissociation of CD1d:glycolipid complex after 3 days (L363 ELISA) ([4]; UV irradiated 365 nm 1 hr) | dissociation of CD1d:glycolipid complex after 3 days (L363 ELISA) ([4]; not UV irradiated) | iNKT hybridoma stimulation following UV crosslinking (IL-2 ELISA) ([2]; UV crosslinked 365 nm 1 hr) | iNKT stimulation, level of IL-2 secreted in the supernatant [5] | iNKT stimulation, level of IL-2 secreted in the supernatant [6] | CD1d/glycolipid complex formation detected by mAb L363 ELISA ([4]; plate bound mCD1d 10 μg/ml, glycolipid 5 μM) | fluorescence quenching of mCD1d due to glycolipid binding [7]
CCCCCCCCCCCCCC[C@@H](O)[C@@H](O)[C@H](CO[C@H]1O[C@H](CO)[C@H](O)[C@H](O)[C@H]1O)NC(=O)CCCCCCCCCCc1ccc(F)cc1 [Compound 7DW8-5, reference compound] | almost complete loss of signal | showed affinity to CD1d | almost complete loss of signal | did not stimulate iNKT post-dissociation | almost complete loss of signal | showed affinity to CD1d | almost complete loss of signal | dissociated after 3 days | dissociated after 3 days |  |  |  |  | 
CCCCCCCCCCCCCC[C@@H](O)[C@@H](O)[C@H](COC1OC(CO)C(O)C(O)C1O)NC(=O)CCCCCCCCCOCc1cccc(C(=O)c2ccccc2)c1 (stereo partly drawn) [DB11-2] |  |  |  | some, albeit reduced, iNKT stimulation even after dissociation |  |  |  | no significant dissociation |  | second best stimulator | stimulatory toward iNKT cells | stimulated iNKTs most efficiently at a low concentration of 0.1 μg/ml | highest levels of immunoreactive complex formation | 
CCCCCCCCCCCCCC[C@@H](O)[C@@H](O)[C@H](COC1OC(CO)C(O)C(O)C1O)NC(=O)CCCCCCCCOCc1cccc(C(=O)c2ccccc2)c1 (stereo partly drawn) [DB12-7] |  |  |  | some, albeit reduced, iNKT stimulation even after dissociation |  |  |  |  |  |  |  | lower but still significant IL-2 secretion |  | greatest quenching

From US10111950B2, “Modified glycolipids and methods of making and using the same” (Vaccinex, Inc., priority 2013, dated 2018)
